Test results as given in patent publication US4228292A, “N-Substituted benzothiazolines and benzoxazolines and their use as herbicides and plant growth regulants” (Monsanto Company, priority 1978, dated 1980).

What was measured:
Type in all cases: in vivo
Sugar Beet [1] = experiment: post-emergent herbicidal test; conditions: M, 4 WAT
Description: (§1) The post-emergent tests were conducted as follows:
(§2) The herbicidal active ingredients are applied in spray form to two or three-week old specimens of various plant species. The spray, a solution or wettable powder suspension containing the appropriate rate of herbicidal active ingredient to give the desired test rate and a surfactant, is applied to the plants. The treated plants are placed in a greenhouse and approximately two or four weeks later the effects are observed and recorded. The results are shown in Tables IX and X in which the post-emergent herbicidal rating code is as follows: […]

Sorghum [2] = experiment: post-emergent herbicidal test; conditions: P, 4 WAT
Description: as §1, §2

Hemp Sesbania [3] = experiment: post-emergent herbicidal test; conditions: R, 4 WAT
Description: as §1, §2

Wheat [4] = experiment: post-emergent herbicidal test; conditions: N, 4 WAT
Description: as §1, §2

Wild Buckwheat [5] = experiment: post-emergent herbicidal test; conditions: Q, 4 WAT
Description: as §1, §2

Panicum Spp [6] = experiment: post-emergent herbicidal test; conditions: S, 4 WAT
Description: as §1, §2

Crabgrass [7] = experiment: post-emergent herbicidal test; conditions: T, 4 WAT
Description: as §1, §2

Soybean [8] = experiment: post-emergent herbicidal test; conditions: L, 4 WAT
Description: as §1, §2

Rice [9] = experiment: post-emergent herbicidal test; conditions: O, 4 WAT
Description: as §1, §2

Sugar Beet [10] = experiment: pre-emergent herbicidal test; conditions: M
Description: (§3) The pre-emergent test was conducted as follows:
(§4) A good grade of top soil was placed in aluminum pans and compactd to a depth of 0.95 to 1.27 cm. from the top of the pan. On the top of the soil was placed a predetermined number of seeds or vegetative propagules of various plant species. The soil required to level fill the pans after seeding or adding vegetative propagules was weighed into a pan. A known amount of the herbicidal active ingredient applied in a solvent or as a wettable powder and the soil were thoroughly mixed, and used as a cover layer for prepared pans. After treatment the pans were moved into a greenhouse bench where they were watered from below as needed to give adequate moisture for germination and growth.
(§5) A herbicidal rating code was used to signify the extent of phytotoxicity of each species. The ratings are defined as follows: […]

Sorghum [11] = experiment: pre-emergent herbicidal test; conditions: P
Description: as §3, §4, §5

Hemp Sesbania [12] = experiment: pre-emergent herbicidal test; conditions: R
Description: as §3, §4, §5

Wheat [13] = experiment: pre-emergent herbicidal test; conditions: N
Description: as §3, §4, §5

Wild Buckwheat [14] = experiment: pre-emergent herbicidal test; conditions: Q
Description: as §3, §4, §5

Panicum Spp [15] = experiment: pre-emergent herbicidal test; conditions: S
Description: as §3, §4, §5

Crabgrass [16] = experiment: pre-emergent herbicidal test; conditions: T
Description: as §3, §4, §5

Soybean [17] = experiment: pre-emergent herbicidal test; conditions: L
Description: as §3, §4, §5

Rice [18] = experiment: pre-emergent herbicidal test; conditions: O
Description: as §3, §4, §5
Note: ranges in brackets are in %.

| Compound | pre-emergent herbicidal rating (Sugar Beet [10]; 1.12 kg/h, 4 WAT) | pre-emergent herbicidal rating (Sugar Beet [10]; 5.6 kg/h, 4 WAT) | pre-emergent herbicidal rating (Sorghum [11]; 1.12 kg/h, 4 WAT) | pre-emergent herbicidal rating (Sorghum [11]; 5.6 kg/h, 4 WAT) | pre-emergent herbicidal rating (Hemp Sesbania [12]; 1.12 kg/h, 4 WAT) | pre-emergent herbicidal rating (Hemp Sesbania [12]; 5.6 kg/h, 4 WAT) | pre-emergent herbicidal rating (Wheat [13]; 1.12 kg/h, 4 WAT) | pre-emergent herbicidal rating (Wheat [13]; 5.6 kg/h, 4 WAT) | pre-emergent herbicidal rating (Wild Buckwheat [14]; 1.12 kg/h, 4 WAT) | pre-emergent herbicidal rating (Wild Buckwheat [14]; 5.6 kg/h, 4 WAT) | pre-emergent herbicidal rating (Panicum Spp [15]; 1.12 kg/h, 4 WAT) | pre-emergent herbicidal rating (Panicum Spp [15]; 5.6 kg/h, 4 WAT) | pre-emergent herbicidal rating (Crabgrass [16]; 1.12 kg/h, 4 WAT) | pre-emergent herbicidal rating (Crabgrass [16]; 5.6 kg/h, 4 WAT) | pre-emergent herbicidal rating (Soybean [17]; 1.12 kg/h, 4 WAT) | pre-emergent herbicidal rating (Soybean [17]; 5.6 kg/h, 4 WAT) | pre-emergent herbicidal rating (Rice [18]; 1.12 kg/h, 4 WAT) | pre-emergent herbicidal rating (Rice [18]; 5.6 kg/h, 4 WAT) | also measured |
| --- | --- | --- | --- | --- | --- | --- | --- | --- | --- | --- | --- | --- | --- | --- | --- | --- | --- | --- | --- |
| COC(=N)Cn1c(=O)sc2ccccc21 [Compound 11] | 1 (25-49) | 2 (50-74) | 0 (0-24) | 0 (0-24) | 1 (25-49) | 3 (75-100) | 1 (25-49) | 1 (25-49) | 1 (25-49) | 3 (75-100) | 0 (0-24) | 2 (50-74) | 0 (0-24) | 1 (25-49) | 2 (50-74) | 3 (75-100) | 0 (0-24) | 0 (0-24) | post-emergent herbicidal rating (Sugar Beet [1]; 1.12 kg/h): 2 (50-74); post-emergent herbicidal rating (Sugar Beet [1]; 5.6 kg/h): 4 (100); post-emergent herbicidal rating (Sorghum [2]; 1.12 kg/h): 0 (0-24); post-emergent herbicidal rating (Sorghum [2]; 5.6 kg/h): 1 (25-49); post-emergent herbicidal rating (Hemp Sesbania [3]; 1.12 kg/h): 1 (25-49); post-emergent herbicidal rating (Hemp Sesbania [3]; 5.6 kg/h): 3 (75-99); post-emergent herbicidal rating (Wheat [4]; 1.12 kg/h): 1 (25-49); post-emergent herbicidal rating (Wheat [4]; 5.6 kg/h): 1 (25-49); post-emergent herbicidal rating (Wild Buckwheat [5]; 1.12 kg/h): 2 (50-74); post-emergent herbicidal rating (Wild Buckwheat [5]; 5.6 kg/h): 4 (100); post-emergent herbicidal rating (Panicum Spp [6]; 1.12 kg/h): 0 (0-24); post-emergent herbicidal rating (Panicum Spp [6]; 5.6 kg/h): 1 (25-49); post-emergent herbicidal rating (Crabgrass [7]; 1.12 kg/h): 0 (0-24); post-emergent herbicidal rating (Crabgrass [7]; 5.6 kg/h): 0 (0-24); post-emergent herbicidal rating (Soybean [8]; 1.12 kg/h): 1 (25-49); post-emergent herbicidal rating (Soybean [8]; 5.6 kg/h): 3 (75-99); post-emergent herbicidal rating (Rice [9]; 1.12 kg/h): 0 (0-24); post-emergent herbicidal rating (Rice [9]; 5.6 kg/h): 0 (0-24) |
| CCOC(=N)Cn1c(=O)sc2ccccc21 [Compound 25] | 1 (25-49) | 3 (75-100) | 0 (0-24) | 0 (0-24) | 2 (50-74) | 3 (75-100) | 0 (0-24) | 1 (25-49) | 1 (25-49) | 2 (50-74) | 0 (0-24) | 0 (0-24) | 0 (0-24) | 2 (50-74) | 2 (50-74) | 3 (75-100) | 0 (0-24) | 1 (25-49) | pre-emergent herbicidal rating (Sugar Beet [10]; 0.056 kg/h, 2 WAT): 0 (0-24); pre-emergent herbicidal rating (Sugar Beet [10]; 0.28 kg/h, 2 WAT): 1 (25-49); pre-emergent herbicidal rating (Sorghum [11]; 0.056 kg/h, 2 WAT): 0 (0-24); pre-emergent herbicidal rating (Sorghum [11]; 0.28 kg/h, 2 WAT): 0 (0-24); pre-emergent herbicidal rating (Hemp Sesbania [12]; 0.056 kg/h, 2 WAT): 0 (0-24); pre-emergent herbicidal rating (Hemp Sesbania [12]; 0.28 kg/h, 2 WAT): 0 (0-24); pre-emergent herbicidal rating (Wheat [13]; 0.056 kg/h, 2 WAT): 0 (0-24); pre-emergent herbicidal rating (Wheat [13]; 0.28 kg/h, 2 WAT): 0 (0-24); pre-emergent herbicidal rating (Wild Buckwheat [14]; 0.056 kg/h, 2 WAT): 0 (0-24); pre-emergent herbicidal rating (Wild Buckwheat [14]; 0.28 kg/h, 2 WAT): 0 (0-24); pre-emergent herbicidal rating (Panicum Spp [15]; 0.056 kg/h, 2 WAT): 0 (0-24); pre-emergent herbicidal rating (Panicum Spp [15]; 0.28 kg/h, 2 WAT): 0 (0-24); pre-emergent herbicidal rating (Crabgrass [16]; 0.056 kg/h, 2 WAT): 0 (0-24); pre-emergent herbicidal rating (Crabgrass [16]; 0.28 kg/h, 2 WAT): 0 (0-24); pre-emergent herbicidal rating (Soybean [17]; 0.056 kg/h, 2 WAT): 0 (0-24); pre-emergent herbicidal rating (Soybean [17]; 0.28 kg/h, 2 WAT): 1 (25-49); pre-emergent herbicidal rating (Rice [18]; 0.056 kg/h, 2 WAT): 0 (0-24); pre-emergent herbicidal rating (Rice [18]; 0.28 kg/h, 2 WAT): 0 (0-24) |
